Reference: patent publication US10010572B2, “Composition for musculoskeletal pain” (priority 2015, dated 2018)

System: chronic musculoskeletal pain
Assay: Randomized, double-blind, placebo-controlled clinical study of topical analgesics (St. Lucia), Subjective Pain Intensity Rating (SPIR)
Source text: Chronic musculoskeletal pain is relatively common in all age groups and may be the result of work-related trauma, sports-related injuries, postural events, various traumas and the natural aging process. Pharmaceutical agents including non-steroidal anti-inflammatory drugs acetaminophen, opioids and other drugs are frequently used to treat such patients. Because of the potential adverse effects associated with most of these drugs, one embodiment of the present invention, a topical analgesic, with coconut oil as a base ingredient and other natural oils, was clinically tested to determine its efficacy in the management of chronic musculoskeletal pain.
One hundred ninety six (196) patients were enrolled in the study. The patients were randomized to the 3 groups using the nQuery Advisor version 7.0 software protocol.
After obtaining permission from the Committee for the Protection of Human Subjects attached to the St. Lucia Pain Institute, the Ministry of Health in St. Lucia and the St. Lucia Medical and Dental Association Ethics Committee, a randomized, double-blind, placebo-controlled study was designed and implemented in the Caribbean island of St. Lucia. St. Lucia was chosen as the study site for a number of reasons: that population is relatively opioid-naive; chronic musculoskeletal pain is quite common, and most patients tend to use and in some cases, prefer to use topical analgesics for musculoskeletal pain management instead of oral or other parenteral medications. Moreover, the Principal Investigator (inventor of the present invention) lives in St. Lucia for part of the year. One hundred and ninety-six (196) patients were enrolled in the study and were subsequently randomized to a pre-determined computerized protocol. […] The Diclofenac ointment was dispensed in a label-less tube.
All patients were initially evaluated by the Principal Investigator and another investigator after triage screening by the Study Coordinator. At that screening, the patients were assessed using the inclusionary and exclusionary criteria. […] Patients were recruited via television, radio and newspaper announcements, and interviews announcing the study. […] This study was supported and funded by three St. Lucian Financial Institutions.
Subjective Pain Intensity Rating (SPIR) was determined on each patient using a scale of 0 (no pain) to 10 (the maximum possible pain, e.g. immersion of the hand in boiling water). That raw score was multiplied by 10 to obtain a percentage score. […] After successful enrollment, patients were randomized to one of the 3 groups. Patients were dispensed with 5 ounces of one of the 3 medications and were instructed to apply the medication twice daily for 2 weeks.
All patients were contacted by the Study Coordinator after 2 weeks and pain score (as described above), satisfaction with the drug, satisfaction with the overall study and the presence of adverse effects were determined. Then, 2 weeks later (4 weeks after study commencement), patients were asked to return to the study office (St. Lucia Pain Institute office) for follow-up clinical evaluation and determination of pain score, adverse effects and related data similar to what was obtained at 2 weeks.

O=C(O)Cc1ccccc1Nc1c(Cl)cccc1Cl [Diclofenac]
Median pain score at 3 months (100 point scale, 3 month post-study telephone interview): 25%
Median change in pain from baseline to 3 months (decrease) (100 point scale, decrease, not statistically significant among groups): 30%
patients with progressive radicular pain and paresthesiae (major adverse effect) (after 5 days, subsided on discontinuation, reappeared on re-introduction, study discontinued in that patient after 8 days): One
change in SPIR pain score from baseline to 2 weeks (patients with chronic axial musculoskeletal pain, topical twice daily, baseline to 2 weeks, all p<0.0001): corresponding decreases in pain scores
change in SPIR pain score from baseline to 4 weeks (patients with chronic axial musculoskeletal pain, topical twice daily, baseline to 4 weeks, all p<0.0001): corresponding decreases in pain scores
patients who developed superficial skin rashes (receded without therapy when the drug was discontinued): Four
